In patent US5747500A, “Antiviral 2, 4-pyrimidinedione derivatives” (priority 1993, dated 1998):
In brackets after ≈: the same amount, converted by molar mass.

Key:
[1] = cytotoxicity: viability of mock-infected MT-4 host cells (MTT method); type: cell-based; conditions: human, mt-4 cells, read-out: CD50: Cytotoxic concentration that causes death of cells by 50%
Method: The cytotoxicity of the compounds of the present invention was assessed in parallel with their antiviral activity. It was based on the viability of mock-infected host cells as determined by the MTT methods (se J. Virol. Methods, 20, 309 (1988)).
CD50 : Cytotoxic concentration that causes death of cells by 50%

HIV = assay: inhibition of HIV-induced cytopathic effect in MT-4 cells (MTT method); type: cell-based; conditions: for EC50: Human immunodeficiency virus 1, MT4, HIV-infected MT-4 cells, 1000 CCID50, 4 or 5 day incubation at 37° C., MTT method, read-out: ED50: Effective concentration for the inhibition of the proliferation of HIV by 50%; for S.I.: Selectivity index (CD50/ED50): ratio CD50/ED50, MT-4 cells
Method: The anti-HIV assays were based on the inhibition of the virus-induced cytopathic effect in MT-4 cells as described in J. Virol. Methods, 16, 171 (1987). Briefly, MT-4 cells were suspended in culture medium at 2.5×10^5 cells/ml and infected with 1000 CCID50 (50% cell culture infective dose) of HIV. Immediately, after virus infection, 100 μl of the cell suspension was brought into each well of a flat-bottomedmicrotiter tray containing various concentrations of the test compounds. After a 4 or 5 day incubation at 37° C., the number of viable cells was determined by the 3-(4,5-dimethylthiazol-2-yl)-2,5-diphenyltetrazoliumbromide (MTT) method, as disclosed in J. Virol. Methods, 20, 309 (1988).
ED50 : Effective concentration for the inhibition of the
proliferation of HIV by 50%

| SMILES | CC50 [1] [µg/mL] | EC50 (HIV) [µg/mL] | S.I.: Selectivity index (CD50/ED50) (HIV) |
| --- | --- | --- | --- |
| C=CCn1c(C(=O)c2cc(C)cc(C)c2)c(CC)c(=O)[nH]c1=O [Example 43, 1-allyl-5-ethyl-6-(3,5-dimethylbenzoyl)-2,4-pyrimidinedione] | 54.5 (≈ 175 µM) | < 0.17 | > 320 |
| C#CCn1c(Sc2ccccc2)c(CC)c(=O)[nH]c1=O [Example 1, 1-propargyl-5-ethyl-6-phenylthio-2,4-pyrimidinedione] | 14.8 (≈ 51.9 µM) | < 0.32 | > 46 |
| CCOCn1c(Cc2cc(C)cc(C)c2)c(CC)c(=O)[nH]c1=O [Ref. 1, 1ethoxymethyl-5-ethyl-6-(3,5-dimethylbenzyl)-2,4-pyrimidinedione, reference compound] | 44.7 (≈ 141 µM) | < 0.009 | > 4,962 |
| CCc1c(Sc2ccccc2)n(CC=C(C)C)c(=O)[nH]c1=O [Example 15, 1-(3-methyl-2-butenyl)-5-ethyl-6-phenylthio-2,4-pyrimidinedione] | 11.3 (≈ 35.6 µM) | 0.36 (≈ 1.14 µM) | 31 |
| CCc1c(C(=O)c2cc(C)cc(C)c2)n(C/C=C/COC(C)=O)c(=O)[nH]c1=O [Example 80, 1-(4-acetoxy-trans-2-butenyl)-5-ethyl-6-(3,5-dimethylbenzoyl)-2,4-pyrimidinedione] | 44.4 (≈ 115 µM) | < 0.033 | > 1,345 |
| CCc1c(Sc2cc(C)cc(C)c2)n(C/C=C/C(=O)OC)c(=O)[nH]c1=O [Example 21] | 41.4 (≈ 111 µM) | < 0.32 | > 129 |
| C/C=C/Cn1c(Cc2cc(C)cc(C)c2)c(CC)c(=O)[nH]c1=O [Example 5, 1-(trans-2-butenyl)-5-ethyl-6-(3,5-dimethylbenzyl)-2,4-pyrimidinedione] | 48.6 (≈ 156 µM) | < 0.032 | > 1,518 |
| CCc1c(Sc2cc(C)cc(C)c2)n(C/C=C/CCl)c(=O)[nH]c1=O [Example 22] | 33.8 (≈ 92.6 µM) | < 0.36 | > 93 |
| CCc1c(C(=O)c2cc(C)cc(C)c2)n(CC=CC(=O)OC(C)C)c(=O)[nH]c1=O [Example 73, 1-(isopropoxycarbonylallyl)-5-ethyl-6-(3,5-dimethylbenzoyl)-2,4-pyrimidinedione] | 4.85 (≈ 12.2 µM) | < 0.01 | > 485 |
| CC/C=C/Cn1c(Sc2cc(C)cc(C)c2)c(C(C)C)c(=O)[nH]c1=O [Example 28] | 5.79 (≈ 16.2 µM) | < 0.009 | > 643 |
| CCc1c(Oc2cc(C)cc(C)c2)n(C/C=C/CO)c(=O)[nH]c1=O [Example 83, 1-(4-hydroxy-trans-2-butenyl)-5-ethyl-6-(3,5-dimethylphenoxy)-2,4-pyrimidinedione] | 25.5 (≈ 77.2 µM) | < 0.81 | > 31 |
| CCc1c(Oc2cc(C)cc(C)c2)n(CC#Cc2ccccc2)c(=O)[nH]c1=O [Example 61, 1-(3-phenyl-2-propynyl)-5-ethyl-6-(3,5-dimethylphenoxy)-2,4-pyrimidinedione] | 9.3 (≈ 24.8 µM) | < 0.009 | > 1,033 |
| CCc1c(Sc2ccccc2)n(C/C=C\COCc2ccccc2)c(=O)[nH]c1=O [Example 17] | 5.79 (≈ 14.2 µM) | 3.68 (≈ 9.01 µM) | 1.57 |
| CC(=O)OC/C=C/Cn1c(C(=O)c2cc(C)cc(C)c2)c(C(C)C)c(=O)[nH]c1=O [Example 75, 1-(4-acetoxy-trans-2-butenyl)-5-isopropyl-6-(3,5-dimethylbenzoyl)-2,4-pyrimidinedione] | 58.4 (≈ 147 µM) | < 0.009 | > 6,487 |
| CCc1c(Oc2cc(C)cc(C)c2)n(C/C=C/C(=O)OC)c(=O)[nH]c1=O [Example 63] | 7.17 (≈ 20 µM) | < 0.032 | > 224 |
| CCc1c(C(=O)c2cc(C)cc(C)c2)n(C/C=C/COC)c(=O)[nH]c1=O [Example 82, 1-(4-methoxy-trans-2-butenyl)-5-ethyl-6-(3,5-dimethylbenzoyl)-2,4-pyrimidinedione] | 43.1 (≈ 121 µM) | < 0.32 | > 134 |
| C/C=C/Cn1c(Cc2cc(C)cc(C)c2)c(C(C)C)c(=O)[nH]c1=O [Example 41] | 21 (≈ 64.5 µM) | 0.01 (≈ 0.0306 µM) | > 2,104 |
| Cc1cc(C)cc(Cc2c(C(C)C)c(=O)[nH]c(=O)n2CC#Cc2ccccc2)c1 [Example 42, 1-(3-phenyl-2-propynyl)-5-isopropyl-6-(3,5-dimethylbenzyl)-2,4-pyrimidinedione] | 7.42 (≈ 19.2 µM) | < 0.009 | > 824 |
| C=CCn1c(Cc2cc(C)cc(C)c2)c(CC)c(=O)[nH]c1=O [Example 34, 1-allyl-5-ethyl-6-(3,5-dimethylbenzyl)-2,4-pyrimidinedione] | 12.3 (≈ 41.3 µM) | < 0.32 | > 38 |
| C/C=C/Cn1c(Sc2cc(C)cc(C)c2)c(CC)c(=O)[nH]c1=O [Example 19] | 8.74 (≈ 26.4 µM) | – | > 971 |
| CCc1c(C(=O)c2cc(C)cc(C)c2)n(C/C=C/CN=[N+]=[N-])c(=O)[nH]c1=O [Example 79, 1-(4-azido-trans-2-butenyl)-5-ethyl-6-(3,5-dimethylbenzoyl)-2,4-pyrimidinedione] | 8.2 (≈ 22.3 µM) | < 0.009 | > 911 |
| CCc1c(C(=O)c2cc(C)cc(C)c2)n(C/C=C/c2ccccc2)c(=O)[nH]c1=O [Example 45, 1-(trans-cinnamyl)-5-ethyl-6-(3,5-dimethylbenzoyl)-2,4-pyrimidinedione] | 5.97 (≈ 15.4 µM) | < 0.009 | > 663 |
| C#CCn1c(Sc2cc(C)cc(C)c2)c(CC)c(=O)[nH]c1=O [Example 24, 1-propargyl-5-ethyl-6-(3,5-dimethylphenylthio)-2,4-pyrimidinedione] | 1.81 (≈ 5.76 µM) | < 0.032 | > 56 |
| C=CCn1c(Sc2cc(C)cc(C)c2)c(CC)c(=O)[nH]c1=O [Example 18, 1-allyl-5-ethyl-6-(3,5-dimethylphenylthio)-2,4-pyrimidinedione] | 3.9 (≈ 12.3 µM) | < 0.032 | > 121 |
| Cc1cc(C)cc(Sc2c(C(C)C)c(=O)[nH]c(=O)n2C/C=C/c2ccccc2)c1 [Example 29] | 37.1 (≈ 91.4 µM) | < 0.023 | > 1,615 |
| CCc1c(Cc2cc(C)cc(C)c2)n(C/C=C/C(=O)OC)c(=O)[nH]c1=O [Example 37] | 12.5 (≈ 35 µM) | 1.64 (≈ 4.6 µM) | 7.6 |
| CCc1c(C(=O)c2cc(C)cc(C)c2)n(CC#Cc2ccccc2)c(=O)[nH]c1=O [Example 50, 1-(3-phenyl-2-propynyl)-5-ethyl-6-(3,5-dimethylbenzoyl)-2,4-pyrimidinedione] | 4.34 (≈ 11.2 µM) | < 0.009 | > 482 |
| COC(=O)/C=C/Cn1c(C(=O)c2cc(C)cc(C)c2)c(C(C)C)c(=O)[nH]c1=O [Example 54] | 30.1 (≈ 78.2 µM) | < 0.01 | > 3,005 |
